Molecules are shown by their SMILES.

From patent US20230303540A1 (Merck Sharp & Dohme LLC, priority 2020, published 2023) come the findings set out here.

The target in the test is GST-tagged truncated human mutant G2019S LRRK2 (Homo sapiens, UniProt Q5S007, G2019S). Nature of the test: LRRK2 G2019S Km ATP LanthaScreen assay. Type of test: biochemical. The conditions noted are these: 134 μM ATP (Km ATP), LRRKtide substrate, mean IC50 values; read-out: LRRK2 pIC50 (converted). An outline of the steps:
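Compound preincubated 15 min at room temperature with enzyme in pH 8.5 Tris buffer (10 mM MgCl2). Then a 90 min reaction at ambient temperature with 134 μM (Km) ATP and fluorescein-LRRKtide. EDTA stop, Tb anti-phospho antibody TR-FRET; […]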
On the technique in general: In TR-FRET formats the signal depends on donor and acceptor labels being close together.
Turning to `CCn1ncc(Nc2ncc3cc(Cl)c(N4CCC(C)(O)CC4)cc3n2)c1F` [Ex-6.3, 1-{6-chloro-2-[(1-ethyl-5-fluoro-1H-pyrazol-4-yl)amino]quinazolin-7-yl}-4-methylpiperidin-4-ol], the IC50 was 10.3 nM.
`Cc1c(Nc2ncc3cc(Cl)c(N4CCC(C)(O)CC4)cc3n2)cnn1C1CC1` [Ex-6.4, 1-{6-chloro-2-[(1-cyclopropyl-5-methyl-1H-pyrazol-4-yl)amino}quinazolin-7-yl}-4-methylpiperidin-4-ol]: the IC50 is 1.92 nM.
For the molecule `CC(C)(O)CC(O)Cn1ncc(Nc2ncc3cc(Cl)c(N4CCC(C)(O)CC4)cc3n2)c1Cl` (stereo not drawn) [Ex-6.5, 1-(5-chloro-4-{[6-chloro-7-(4-hydroxy-4-methylpiperidin-1-yl)quinazolin-2-yl]amino}-1H-pyrazol-1-yl)-4-methylpentane-2,4-diol], the IC50 was 27.3 nM.
The result for `CC1(O)CCN(c2cc3nc(Nc4cnn(C(C)(C)C#N)c4Cl)ncc3cc2Cl)CC1` [Ex-6.6, 2-(5-chloro-4-{[6-chloro-7-(4-hydroxy-4-methylpiperidin-1-yl)quinazolin-2-yl]amino}-1H-pyrazol-1-yl)-2-methylpropanenitrile] reads 4.02 nM.
Regarding `Cc1cc(Nc2ncc3cc(Cl)c(N4CCC(C)(O)CC4)cc3n2)sn1` [Ex-6.8, 1-{6-chloro-2-[(3-methyl-1,2-thiazol-5-yl)amino]quinazolin-7-yl}-4-methylpiperidin-4-ol], the IC50 is 16.3 nM.
As for `CC1(O)CCN(c2cc3nc(Nc4cnn(C56CC(C5)C6)c4)ncc3cc2Cl)CC1` [Ex-6.11, 1-(2-{[1-(bicyclo[1.1.1]pentan-1-yl)-1H-pyrazol-4-yl]amino}-6-chloroquinazolin-7-yl)-4-methylpiperidin-4-ol], the figure is 0.808 nM; as for `CC1(O)CCN(c2c(Cl)cc3cnc(Nc4cnn(C56CC(C5)C6)c4Cl)nc3c2Cl)CC1` [Ex-6.12, 1-(2-{[1-(bicyclo[1.1.1]pentan-1-yl)-5-chloro-1H-pyrazol-4-yl]amino}-6,8-dichloroquinazolin-7-yl)-4-methylpiperidin-4-ol], 1.24 nM; as for `CO[C@H]1C[C@H](n2ncc(Nc3ncc4cc(Cl)c(N5CCC(C)(O)CC5)cc4n3)c2C)C1` [Ex-6.13, 1-(6-chloro-2-{[1-(trans-3-methoxycyclobutyl)-5-methyl-1H-pyrazol-4-yl]amino}quinazolin-7-yl)-4-methylpiperidin-4-ol], 0.976 nM.
As for `CO[C@H]1C[C@@H](n2ncc(Nc3ncc4cc(Cl)c(N5CCC(C)(O)CC5)cc4n3)c2C)C1` [Ex-6.14, 1-(6-chloro-2-{[1-(cis-3-methoxycyclobutyl)-5-methyl-1H-pyrazol-4-yl]amino}quinazolin-7-yl)-4-methylpiperidin-4-ol], the figure is 1.65 nM.
The result for `Cc1c(Nc2ncc3cc(Cl)c(N4CCC(C)(O)CC4)cc3n2)cnn1C(C)(C)C#N` [Ex-6.15, 2-(4-{[6-chloro-7-(4-hydroxy-4-methylpiperidin-1-yl)quinazolin-2-yl]amino}-5-methyl-1H-pyrazol-1-yl)-2-methylpropanenitrile] reads 3.57 nM; that for `FC12CC(n3ncc(Nc4ncc5cc(Cl)c(N6CCNCC6)cc5n4)c3Cl)(C1)C2` [Ex-6.55, 6-chloro-N-(5-chloro-1-(3-fluorobicyclo[1.1.1]pentan-1-yl)-1H-pyrazol-4-yl)-7-(piperazin-1-yl)quinazolin-2-amine], 2.11 nM.
Regarding `C[C@@]1(N2CCN(c3cc4nc(Nc5cnn(C6CC6)c5C(F)F)ncc4cc3Cl)CC2)COC[C@@H]1O` [Ex-6.56, (3R,4R)-4-(4-(6-chloro-2-((1-cyclopropyl-5-(difluoromethyl)-1H-pyrazol-4-yl)amino)quinazolin-7-yl)piperazin-1-yl)-4-methyltetrahydrofuran-3-ol], the IC50 is 0.08 nM.
Regarding `CCn1ncc(Nc2ncc3ccc(N4C(=O)OC[C@@H]4C)cc3n2)c1C` [Ex-7.1, (S)-3-(2-((1-ethyl-5-methyl-1H-pyrazol-4-yl)amino)quinazolin-7-yl)-4-methyloxazolidin-2-one], the IC50 is 0.989 nM.
As for `C[C@H]1COC(=O)N1c1ccc2cnc(Nc3cnn([C@@H]4CCN(C5COC5)C[C@H]4F)c3Cl)nc2c1` [Ex-7.2, (4S)-3-[2-({5-chloro-1-[(3R,4R)-3-fluoro-1-(oxetan-3-yl)piperidin-4-yl]-1H-pyrazol-4-yl}amino)quinazolin-7-yl]-4-methyl-1,3-oxazolidin-2-one], the figure is 0.625 nM; as for `Cc1nn(C2C[C@@H](C)O[C@@H](C)C2)cc1Nc1ncc2ccc(N3C(=O)OC[C@@H]3C)cc2n1` (stereo partly drawn) [Ex-7.5, (4S)-3-[2-({1-[(2R,6S)-2,6-dimethyloxan-4-yl]-3-methyl-1H-pyrazol-4-yl}amino)quinazolin-7-yl]-4-methyl-1,3-oxazolidin-2-one], 33.7 nM; as for `C[C@H]1COC(=O)N1c1ccc2cnc(Nc3cn(C)nc3C(F)(F)F)nc2c1` [Ex-7.7, (4S)-4-methyl-3-(2-{[1-methyl-3-(trifluoromethyl)-1H-pyrazol-4-yl]amino}quinazolin-7-yl)-1,3-oxazolidin-2-one], 1.92 nM.
The result for `Cc1nsc(Nc2ncc3ccc(N4C(=O)OC[C@@H]4C)cc3n2)c1C1CC1` [Ex-7.8, (4S)-3-{2-[(4-cyclopropyl-3-methyl-1,2-thiazol-5-yl)amino]quinazolin-7-yl}-4-methyl-1,3-oxazolidin-2-one] reads 11 nM; that for `Cn1cc(Nc2ncc3ccc(N4C(=O)C5CCC4C5)cc3n2)c(C(F)(F)F)n1` (stereo not drawn) [Ex-7.9, 2-(2-{[1-methyl-3-(trifluoromethyl)-1H-pyrazol-4-yl]amino}quinazolin-7-yl)-2-azabicyclo[2.2.1]heptan-3-one], 34 nM.
The result for `Cn1cc(Nc2ncc3ccc(N4C(=O)C5CCC4C5)cc3n2)c(C(F)(F)F)n1` (stereo not drawn) [Ex-7.10, 2-(2-{[1-methyl-3-(trifluoromethyl)-1H-pyrazol-4-yl]amino}quinazolin-7-yl)-2-azabicyclo[2.2.1]heptan-3-one] reads 5.14 nM.
As for `Cc1c(Nc2ncc3ccc(N4C(=O)OC[C@H]4C)cc3n2)cnn1C1CCOCC1` [Ex-7.11, (4R)-4-methyl-3-(2-{[5-methyl-1-(oxan-4-yl)-1H-pyrazol-4-yl]amino}quinazolin-7-yl)-1,3-oxazolidin-2-one], the IC50 is 9.35 nM.
The result for `Cc1nsc(Nc2ncc3ccc(N4C(=O)OC[C@@H]4C)cc3n2)c1C` [Ex-7.12, (4S)-3-{2-[(3,4-dimethyl-1,2-thiazol-5-yl)amino]quinazolin-7-yl}-4-methyl-1,3-oxazolidin-2-one] reads 0.625 nM; that for `CCn1ncc(Nc2ncc3ccc(N4C(=O)C5CCC4C5)cc3n2)c1C` (stereo not drawn) [Ex-7.19, 2-{2-[(1-ethyl-5-methyl-1H-pyrazol-4-yl)amino]quinazolin-7-yl}-2-azabicyclo[2.2.1]heptan-3-one], 2.53 nM.
With `CCn1ncc(Nc2ncc3ccc(N4C(=O)C5CCC4C5)cc3n2)c1C` (stereo not drawn) [Ex-7.20, 2-{2-[(1-ethyl-5-methyl-1H-pyrazol-4-yl)amino]quinazolin-7-yl}-2-azabicyclo[2.2.1]heptan-3-one], the IC50 was 11.3 nM.
The result for `C[C@H]1COC(=O)N1c1ccc2cnc(Nc3cnn(CC(F)(F)F)c3)nc2c1` [Ex-7.21, (4S)-4-methyl-3-(2-{[1-(2,2,2-trifluoroethyl)-1H-pyrazol-4-yl]amino}quinazolin-7-yl)-1,3-oxazolidin-2-one] reads 0.625 nM.
